Source: US20150133537A1, “3 - (1' - ADAMANTYL) - 1 - AMINOMETHYL - 3, 4 - DIHYDRO - 5, 6 - DIHYDROXY - 1H - 2 - BENZOPYRAN FOR USE IN THE TREATMENT OF A DISEASE ASSOCIATED WITH BETA-AMYLOID INDUCED TOXICITY” (The University of Manchester, priority 2012, published 2015)
Where “and” joins values, the source holds several entries; their conditions need not be identical. Equal entries are not always repeated. Structures can show the parent of a compound that is named as a salt.

What was measured:
[1] = system: SH-SY5Y cells treated with extracellular Aβ42; test: MTT assay of cell viability in the presence of extracellular Aβ42; assay type: cell-based; settings: for cell viability (MTT): hydrochloride
Procedure: The compound and target peptide were added simultaneously and incubated at 37° C. followed by cellular viability measurement using MTT assay. […] Data are represented as mean percentage viability, with no treatment controls set as 100%, n=3 and the error bars represent standard error.
The MTT assay provides a colorimetric analysis of cell viability by the conversion of MTT into formazan product by the mitochondrial enzyme succinate dehydrogenase. For cytotoxicity experiments cells were washed twice with Dulbecco's PBS followed by trypsinisation of cells, centrifugation at 1800 rpm and seeding the cells on 96 well flat bottom plates (Costar) in Opti-MEM media without phenol red supplemented with 1.5% FCS, 1% L-glutamine, 1% Penicillin-streptomycin (P/S) and 1% non essential amino acids (NEAA).
The cells were seeded at 1×10^5/ml density in a 96 well flat bottom plate (Costar) and incubated for 24 hr in a humidified incubator at 37° C. with 5% CO2.
After 24 hr; 50 μl of the media was removed and 10 μl of MTT (2.5 mg/ml) was added to the cells. This was followed by incubation for further 4 hr at 37° C. and 5% CO2. MTT reduction was characterized by adding 100 μl solubilization solution containing 50 ml isopropyl alcohol and 197 μl of 37% HCl. The cytotoxicity was determined by measuring the absorbance at 570 nm using Polarstar BMG labtech plate reader.
For the MTT cytotoxicity assay, A-77636 was diluted in the Opti-MEM media supplemented with 1.5% FCS, 1% P/S, 1% L-glutamine and 1% NEAA. The target compound was added to the SH-SY5Y cells at concentrations of 100 μM, 10 μM, 1 μM, 100 nM, 10 nM and 1 nM.
The cells were seeded at 1×10^5/ml density in a 96 well flat bottom plate (Costar) and incubated for 24 hr in a humidified incubator at 37° C. with 5% CO2. […] The cells were then incubated for 24 hr in the humidified incubator at 37° C. in 5% CO2.
After 24 hr; 500 of the media was removed and 10 μl of MTT (2.5 mg/ml) was added to the cells. This was followed by incubation for further 4 hr at 37° C. and 5% CO2. MTT reduction was characterized by adding 100 μl solubilization solution containing 50 ml isopropyl alcohol and 197 μl of 37% HCl. The 96 well plates were kept at room temperature for 6 hr to dissolve the formazan crystals. The cytotoxicity was determined by measuring the absorbance at 570 nm using Polarstar BMG labtech plate reader.

[2] = system: SHSY5Y cells treated with Aβ42 (1 μM); test: Cyto Tox-One LDH (lactate dehydrogenase) release assay; assay type: cell-based; settings: for LDH release: SHSY5Y cells, Exp 1-3 and Avg, hydrochloride;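 as to all read-outs here: fluorescent readout of resorufin formed from resazurin in proportion to released LDH (excitation 560 nm, emission 590 nm), with detergent-lysed dead cells taken as 100% maximal release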
Source text: The LDH assay provides the measure of cytotoxicity, wherein the amount of LDH released quantifies cell membrane damage, caused either by apoptosis or necrosis^13,15. The commercially available Cyto Tox-One assay (Promega; G7890) was used here which provides a fluorescent measure of LDH release, wherein the reduction of resazurin dye to resofurin is coupled through enzymatic conversion involving NADH. The generation of fluorescent dye resofurin is proportional to the amount of LDH release.
For the LDH cytotoxicity assay, A-77636 was diluted in the Opti-MEM media supplemented with 1.5% FCS, 1% P/S, 1% L-glutamine and 1% NEAA. A-77636 was added to the SHSY5Y cells at concentrations of 100 μM, 10 μM, 1 μM, 100 nM, 10 nM and 1 nM.
The cells were seeded at 1×10^5/ml density in a 96 well black, flat bottom plate (BD Biosciences) and incubated for 24 hr in a humidified incubator at 37° C. with 5% CO2. […] The final concentration of the target peptide and A-77636 within the cells was 1 μM:100 μM, 1 μM:10 μM, 1 μM:1 μM, 1 μM:100 nM, 1 μM:10 nM, and 1 μM:1 nM respectively. The cells were then incubated for 24 hr in the humidified incubator at 37° C. in 5% CO2.
After 24 hr, the 96 well plates were removed from the incubator and equilibrated at 22° C. for 30 min. The Cyto Tox-One reagent was prepared according to the manufacturer's protocol by equilibrating the substrate mix at 22° C. and thawing the assay buffer at 37° C. in a water bath. This was followed by adding 11 ml of assay buffer to each vial of substrate mix. 100 μl of Cyto Tox-One reagent was added to each well. The preparation and addition of Cyto Tox-One reagent was undertaken in the dark to avoid increased background fluorescence and stored at −20° C. until required. The cells were further incubated at 22° C. for 10 min followed by addition of stop solution to the wells in the same order as that of the Cyto Tox-One reagent to avoid increased variation in the results. The stop solution stops formation of fluorescent product resofurin. The maximum LDH release (set as 100%) for each experiment was determined by adding 2 μl of lysis solution (9% triton X 100, Promega) to the cells prior to the addition of Cyto Tox-One reagent, providing a dead cell control. […] The 96 well plates were then kept on the shaker for 10 sec and the fluorescence was measured immediately with an excitation at 560 nm and emission at 590 nm using a Polarstar BMG plate reader.

[3] = known, reference 16; cited from earlier work
[4] = system: Parkinson's disease in animal models; settings: known, reference 9; cited from earlier work

Br.C=CCN1CCc2c(cc(O)c(O)c2Br)[C@@H](c2ccccc2)C1 [Compound A, R(+)-6-Bromo-7,8-dihydroxy-3-allyl-1-phenyl-2,3,4,5-tetrahydro-1H-3-benzazepine hydrobromide, reference compound]
inhibition of Aβ42 toxicity ([1]; D1 receptor agonist screen, SH-SY5Y cells, Aβ42 (1 μM), 24 hr, MTT): partial inhibition | cellular viability (MTT) ([1]; D1 receptor agonist screen, SH-SY5Y cells, added simultaneously with Aβ42 (1 μM), 24 hr, no treatment controls = 100%, p<0.05): 81%

NC[C@@H]1O[C@H](C23CC4CC(CC(C4)C2)C3)Cc2c1ccc(O)c2O [Compound A-77636, (1R,3S) 3-(1′-adamantyl)-1-aminomethyl-3,4-dihydro-5,6-dihydroxy-1H-2-benzopyran hydrochloride]
toxicity in LDH assay ([2]; A-77636 at 100 μM, 1 μM Aβ42): possibly toxic | LDH release ([2]; 1 μM Aβ42 + 1 nM A-77636, 24 hr): 35% and 38% and 61% | LDH release ([2]; 1 μM Aβ42 + 1 nM A-77636, 24 hr, mean): 45% | LDH release ([2]; 1 μM Aβ42 + 10 nM A-77636, 24 hr): 35% and 39% and 56% | LDH release ([2]; 1 μM Aβ42 + 10 nM A-77636, 24 hr, mean): 43% | LDH release ([2]; 1 μM Aβ42 + 100 nM A-77636, 24 hr): 20% and 23% and 32% | LDH release ([2]; 1 μM Aβ42 + 100 nM A-77636, 24 hr, mean): 25% | LDH release ([2]; 1 μM Aβ42 + 1 μM A-77636, 24 hr): 27% and 48% and 43% | LDH release ([2]; 1 μM Aβ42 + 1 μM A-77636, 24 hr, mean): 39% | LDH release ([2]; 1 μM Aβ42 + 10 μM A-77636, 24 hr): 33% and 47% and 52% | LDH release ([2]; 1 μM Aβ42 + 10 μM A-77636, 24 hr, mean): 44% | LDH release ([2]; 1 μM Aβ42 + 100 μM A-77636, 24 hr, LDH max (dead cells) = 100): 61% and 53% and 64% | effect on Aβ42 toxicity in LDH assay ([2]; all concentrations from 100 μM to 1 nM, 1 μM Aβ42): reduces Aβ42 toxicity | crossing of the blood-brain barrier [3]: cross the blood-brain barrier | inhibition of the toxic effects of Aβ42 ([1]; 1 μM A-77636, 1 μM Aβ42, MTT, Table 1): capable of inhibiting the toxic effects of Aβ42 | activity against Aβ42 toxicity in MTT assay ([1]; A-77636 at 1 nM, SH-SY5Y cells with 1 μM Aβ42): inactive | toxicity in MTT assay ([1]; A-77636 at 100 μM, SH-SY5Y cells with 1 μM Aβ42): toxic | activity against Aβ42 toxicity in MTT assay ([1]; A-77636 from 10 nM to 10 μM, SH-SY5Y cells with 1 μM Aβ42): active | cell viability (MTT) ([1]; SH-SY5Y cells, 1 μM Aβ42 + 1 μM A-77636, 24 hr, Aβ42 −ve cells = 100%, Experiments 1-3 and Average): 82% and 69% and 92% | cell viability (MTT) ([1]; SH-SY5Y cells, 1 μM Aβ42 + 1 μM A-77636, 24 hr, Aβ42 −ve cells = 100%, Experiments 1-3 and Average, mean): 81% | cell viability (MTT) ([1]; SHSY5Y cells, 1 μM Aβ42 + 1 nM A-77636, 24 hr, Exp 1-3 and Avg): 71% and 67% | cell viability (MTT) ([1]; SHSY5Y cells, 1 μM Aβ42 + 1 nM A-77636, 24 hr, Exp 1-3 and Avg, mean of three experiments): 68% | cell viability (MTT) ([1]; SHSY5Y cells, 1 μM Aβ42 + 10 nM A-77636, 24 hr, Exp 1-3 and Avg): 80% and 74% and 84% | cell viability (MTT) ([1]; SHSY5Y cells, 1 μM Aβ42 + 10 nM A-77636, 24 hr, Exp 1-3 and Avg, mean of three experiments): 79% | cell viability (MTT) ([1]; SHSY5Y cells, 1 μM Aβ42 + 100 nM A-77636, 24 hr, Exp 1-3 and Avg): 78% and 74% and 81% | cell viability (MTT) ([1]; SHSY5Y cells, 1 μM Aβ42 + 100 nM A-77636, 24 hr, Exp 1-3 and Avg, mean of three experiments): 77% | cell viability (MTT) ([1]; SHSY5Y cells, 1 μM Aβ42 + 1 μM A-77636, 24 hr, Exp 1-3 and Avg (Table 2)): 87% and 90% and 86% | cell viability (MTT) ([1]; SHSY5Y cells, 1 μM Aβ42 + 10 μM A-77636, 24 hr, Exp 1-3 and Avg): 84% and 81% and 86% | cell viability (MTT) ([1]; SHSY5Y cells, 1 μM Aβ42 + 10 μM A-77636, 24 hr, Exp 1-3 and Avg, mean of three experiments): 83% | cell viability (MTT) ([1]; SHSY5Y cells, 1 μM Aβ42 + 100 μM A-77636, 24 hr, Exp 1-3 and Avg): 9% and 4% | cell viability (MTT) ([1]; SHSY5Y cells, 1 μM Aβ42 + 100 μM A-77636, 24 hr, Exp 1-3 and Avg, mean of three experiments): 6% | activity against Parkinson's disease in animal models [4]: activity against Parkinson's disease
